Assay results published in patent publication EP0983055B1, “COMPOSITION COMPRISING AN AMINO ACID N-UNDECYLENOYL; APPLICATION IN COSMETICS” (SOCIETE D'EXPLOITATION DE PRODUITS POUR LES INDUSTRIES …, priority 1997, dated 1999).

What was measured:
Staph. aureus = experiment: MIC (CMI) determination in liquid medium; assay type: cell-based; conditions: pH5, substance alone, 72 h incubation at 30°C
Protocol: (§1) On a déterminé les CMI en milieu liquide, avec un temps d'incubation de 72 heures à 30°C, à […] (bouillon Trypticase soja tamponné), du Lipacide™ UG seul, du conservateur testé seul, ainsi que du mélange des deux produits La comparaison des résultats consignés dans les tableaux suivants fait apparaître nettement une synergie anti-microbienne qui autorise ainsi une réduction de la concentration nécessaires en conservateurs chimique dans les compositions.
(§2) La composition A est diluée dans l'eau pour obtenir la composition A2 contenant 0,05 % en poids d'undécylènoyl glycine et 0,05 % en poids d'octanoyl glycine et la composition A3 contenant 0,125 % en poids d'undécylènoyl glycine et 0,125 % en poids d'octanoyl glycine.
(§3) On obtient les résultats suivants (CMI à pH5).

Aspergillus Niger = experiment: MIC (CMI) determination in liquid medium; assay type: cell-based; conditions: pH5, substance alone, 72 h incubation at 30°C
Protocol: as §1, §2, §3

Row | SMILES | CMI (Staph. aureus) | CMI (Aspergillus Niger)
1 | CCCCCCCC(=O)NCC(=O)O [octanoyl glycine] | 0,025% | 2,5%
2 | C=CCCCCCCCCC(=O)NCC(=O)O [undécylènoyl glycine] | 0,01% | 0,25%
